Reference: PMC11249637, “Interaction of the Atypical Tetracyclines Chelocardin and Amidochelocardin with Renal Drug Transporters” (ACS Pharmacology & Translational Science, 2024)

Target: T1, mOat3 (Mus musculus, UniProt O88909)
T1 construct: expressed in transfected cells; host or cells: HEK293
T1 sequence (O88909 1-537): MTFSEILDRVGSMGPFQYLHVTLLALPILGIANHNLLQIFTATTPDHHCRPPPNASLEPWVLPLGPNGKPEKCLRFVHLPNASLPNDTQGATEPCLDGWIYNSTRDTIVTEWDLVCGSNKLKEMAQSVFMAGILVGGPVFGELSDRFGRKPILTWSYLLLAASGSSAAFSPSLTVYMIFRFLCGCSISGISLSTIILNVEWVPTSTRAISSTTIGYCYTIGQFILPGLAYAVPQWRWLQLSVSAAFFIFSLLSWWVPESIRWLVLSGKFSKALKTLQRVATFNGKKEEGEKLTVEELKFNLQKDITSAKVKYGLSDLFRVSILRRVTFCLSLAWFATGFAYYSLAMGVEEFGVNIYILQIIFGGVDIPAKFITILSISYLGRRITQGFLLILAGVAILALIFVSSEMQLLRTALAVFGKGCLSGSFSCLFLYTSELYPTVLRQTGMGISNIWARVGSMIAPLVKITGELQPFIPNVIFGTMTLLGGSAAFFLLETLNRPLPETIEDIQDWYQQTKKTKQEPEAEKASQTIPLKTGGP
Assay: Three-point uptake (substrate assessment) in mOat3-overexpressing HEK293 cells
Format: in vitro ADME
Protocol: This is important to gain a better understanding of the underlying mechanisms of secretion into urine. Therefore, we assessed the amount of compound taken up by the vector and transporter cells at three different concentrations (1, 10, and 100 μM for mOat1 and mOct1; 0.1, 1, and 10 μM for mOat3) and at two different incubation periods (1 and 5 min for mOat1 and mOct1; 5 and 10 min for mOat3).
The incubation buffer contained CHD and CDCHD in a final concentration of 0.1, 1, and 10 μM. After 5 and 10 min, the incubation was terminated. In addition, the probe inhibitor probenecid (100 μM) was added in one concentration to 10 μM CHD and CDCHD, respectively, and after 5 and 10 min, the incubation was stopped. Inhibition of mOat3-mediated ^3H-ES (1 μM) uptake by 100 μM probenecid was performed as a control experiment. After 1 min, the incubation was terminated. All experiments were conducted in triplicate.
First, a calibration curve was prepared by spiking different concentrations of CHD and CDCHD into the cell matrix. Caffeine was used as an internal standard. In addition, quality control samples (QCs) were prepared for CHD and CDCHD in a cell matrix. The following extraction procedures were used: 300 μL of acetonitrile/water (1:1) is added to the cell pellet (sample or calibration/QC sample) for 15 min at 2000 rpm on an Eppendorf MixMate vortex mixer. 10 μL of this extracted sample is used for further analysis. 10 μL of the extracted cell sample is further extracted with 25 μL of a mixture of methanol/acetonitrile (2:1) containing 12.5 ng/mL caffeine as an internal standard (on ice) for 5 min at 2000 rpm on an Eppendorf MixMate vortex mixer. […] Samples were analyzed using an Agilent 1290 Infinity II HPLC system coupled to an AB Sciex QTrap6500plus mass spectrometer. […]
For statistical testing of differences in uptake ratio or for the inhibitory effect, an ordinary one-way ANOVA test was performed using GraphPad Prism 9.5.1 software. […] Michaelis–Menten kinetics were determined using the Michaelis–Menten algorithm of GraphPad Prism 9.5.1 software. […]

Row | Compound | substrate of mOat3 (in words) | Km (Michaelis–Menten fit, 0.1, 1 and 10 μM) [µM]
1 | Cc1ccc2c(C)c3c(c(O)c2c1O)C(=O)[C@@]1(O)C(=O)C(C(N)=O)=C(O)[C@@H](N)[C@H]1C3 [CDCHD, amidochelocardin] | is not a substrate | –
2 | CC(=O)C1=C(O)[C@@H](N)[C@H]2Cc3c(c(O)c4c(O)c(C)ccc4c3C)C(=O)[C@@]2(O)C1=O [CHD, chelocardin] | is a substrate | 6.1
